Values quoted from earlier work as cited in US6689595B1, “Crystallization and structure determination of Staphylococcus aureus thymidylate kinase” (Pharmacia & Upjohn Company, priority 1999, dated 2004).

Target: E. coli TMK (Escherichia coli, UniProt P0A720)
Conditions: from A. Lavie et al. 1998

E. coli TMK, sequence (P0A720 whole entry): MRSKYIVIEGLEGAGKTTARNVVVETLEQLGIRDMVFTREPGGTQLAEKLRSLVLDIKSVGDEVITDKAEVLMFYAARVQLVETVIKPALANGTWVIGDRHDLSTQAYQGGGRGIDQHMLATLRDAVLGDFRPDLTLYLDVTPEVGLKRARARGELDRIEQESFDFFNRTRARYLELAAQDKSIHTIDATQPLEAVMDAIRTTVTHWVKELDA

In the case of `Cc1cn([C@H]2C[C@H](O)[C@@H](COP(=O)(O)OP(=O)(O)OP(=O)(O)OP(=O)(O)OP(=O)(O)OC[C@H]3O[C@@H](n4cnc5c(N)ncnc54)[C@H](O)[C@@H]3O)O2)c(=O)[nH]c1=O` [AP5T], the Kd is listed as 20 nM.
